Data taken from patent US20120252792A1, “METHODS AND COMPOSITIONS FOR MODULATING RHO-MEDIATED GENE TRANSCRIPTION” (THE REGENTS OF THE UNIVERSITY OF MICHIGAN, priority 2009, published 2012).

Key:
[1] = system: Rho/MKL1 pathway; assay: SRE.L-firefly luciferase reporter (dual luciferase assay), Gα12QL-transfected PC-3 cells; assay type: cell-based, human; details: for inhibition at 10 µM: read-out: % inh SRE.L (10 μM); for inhibition at 100 µM: read-out: % inh SRE.L (100 μM)
Description: (§1) Dual Luciferase Assay: Seed PC-3 prostate cancer cells (40,000 cells/well) were grown in 96-well plates in 10% FBS containing DMEM medium. Cells were transiently transfected with the Gα12QL activator of the Rho/MKL1 pathway, along with the SRE.L-firefly luciferase reporter construct for 6 hours. Additionally, cells were co-transfected with the TK-Renilla luciferase reporter as an indicator of non-specific compound effects. Various concentrations of selected compounds were added to the 96-well plates. Plates were incubated for 19 hours at 37° C. and 5% CO2 in 0.5% FBS containing DMEM medium. Cells were lysed with 1X Passive Lysis Buffer (Promega). Plates were incubated for 30 minutes at room temperature. Luminescence counts were read with a Victor2 (Perkin-Elmer) plate reader.

[2] = system: TK-Renilla luciferase reporter; assay: TK-Renilla (pRL-TK) luciferase reporter, indicator of non-specific compound effects; assay type: cell-based, human; details: PC-3 cells; for inhibition at 10 µM / inhibition at 100 µM: Homo sapiens, PC-3, 19 h; for inhibition at 10 µM: read-out: % inh PRL-TK (10 μM); for inhibition at 100 µM: read-out: % inh PRL-TK (100 μM)
Description: as §1

[3] = system: PC-3 prostate cancer cells; assay: WST1 cell viability assay; assay type: cell-based, human; details: PC-3 cells, just before lysis; for inhibition at 10 µM / inhibition at 100 µM: Homo sapiens; for inhibition at 10 µM: PC-3, 10 μM, read-out: % inh WST-1 (10 μM); for inhibition at 100 µM: PC-3, 100 μM, read-out: % inh WST-1 (100 μM)
Description: WST1 Cell Viability Assay: One hour prior to cell lysis for the dual luciferase assay, 10 μl per well of WST1 reagent (Roche) was added to the 96-well plates. Plates were incubated for 1 hour at 37° C. and 5% CO2. Cell viability was measured by WST1 absorbance at 450 nm with a Victor2 (Perkin-Elmer) plate reader.

[4] = In vivo studies using CCG-1423
[5] = system: PC-3 cells, melanoma and other cancer cell lines; assay: Cancer cell proliferation and survival (BrdUrd, WST-1, caspase-3; FIG. 2); assay type: cell-based
Description: A, PC-3 cells were treated for 27 h with 100 μmol/L LPA in the presence or absence of various concentrations of CCG-1423, labeled with BrdUrd, and stained, and absorbance was read 450 nm. B, various cell lines were treated with […] LPA with or without […] CCG-1423, and then on day 8, WST-1 absorbance was read at 450 nm Black columns indicate four melanoma lines with differing expression of RhoC (A375M2 and SK-MeI-147 have high expression, whereas the parental line A375 (used to derive A375M2) and SK-Mel-28 have lower expression); gray columns indicate several other cancer cell lines; white column indicates the nontransformed fibroblast line WI-38. C, A375 and A375M2 cells were treated with 3 μmol/L CCG-1423 or 3 μmol/L daunorubicin for 25 h, and then caspase-3 activity was measured with a fluorescent substrate (Z0DEVD0R110) using excitation at 485 nm and emission detection at 520 nm. In A and C, data are expressed as a percentage of the no FBS control. In B, data are expressed as percentage of the LPA+DMSO control. All data represent n=3.

[6] = system: PC-3 prostate cancer cells; assay: Matrigel invasion, spontaneous (FIG. 3); assay type: cell-based, human; details: 3 μmol/L, spontaneous invasion through Matrigel
Description: A, LPA stimulates invasion of SKOV-3 but not PC-3 cells. Invasion of Matrigel®-coated filters by serum-starved PC-3 prostate cancer or SKOV-3 ovarian cancer cells were measured with or without 30 μmol/L LPA as chemoattractant. B, CCG-1423 inhibits PC-3 cell invasion, whereas PTX inhibits SKOV-3 cell invasion. The effects of CCG-1423 (3 μmol/L) and PTX (100 ng/mL) on spontaneous (PC-3) or LPA-stimulated (SKOV-3) invasion through Matrigel® were measured. In B, data are expressed as a percentage of control. All data represent n=3.

[7] = system: Rho/MKL1 mediated transcription; details: read-out: IC50 for blocking gene transcription; cited from earlier work
[8] = system: Rho-expressing prostate cancer and melanoma cell lines; details: read-out: IC50 for inhibiting DNA synthesis, cell growth and survival, and Matrigel invasion; cited from earlier work
[9] = Homo sapiens, 19 h, DMSO alone = 0%
[10] = Homo sapiens, 19 h, 100 μM, DMSO alone = 0%

Row | Compound | % inh SRE.L (10 μM) ([1]; 19 hrs, DMSO alone = 0%) | IC50 ([1]; 19 hrs) | % inh PRL-TK (10 μM) ([2]; 10 μM, 19 hrs) | % inh WST-1 (10 μM) ([3]; 10 μM) | in vivo toxicity [4] | cancer cell proliferation and survival [5] | PC-3 cell invasion [6] | IC50 [7] | IC50 [8] | IC50 ([1]; Homo sapiens, 19 h) | inhibition at 10 µM [1, 9] | inhibition at 100 µM [1, 10] | inhibition at 10 µM ([2]; 10 μM) | inhibition at 100 µM ([2]; 100 μM) | inhibition at 10 µM [3] | inhibition at 100 µM [3] | % inh SRE.L (100 μM) ([1]; 100 μM, 19 hrs, DMSO alone = 0%) | % inh PRL-TK (100 μM) ([2]; 100 μM, 19 hrs) | % inh WST-1 (100 μM) ([3]; 100 μM, 100 µM)
1 | CC(ONC(=O)c1cc(C(F)(F)F)cc(C(F)(F)F)c1)C(=O)Nc1ccc(Cl)cc1 (stereo not drawn) [CCG-1423] | 74, ND % | 1.5 µM | 48, ND % | 44, ND % | limited by non-specific toxicity | inhibits | inhibits | 1 µM | 1 µM | – | – | – | – | – | – | – | – | – | –
2 | O=C(NCCCNc1ccc(Cl)cc1)c1cc(C(F)(F)F)cc(C(F)(F)F)c1 [Compound 15, N-(3-(4-chlorophenylamino)propyl)-3,5-bis(trifluoromethyl)benzamide] | – | – | – | – | – | – | – | – | – | 5.1 µM | 70% | 80% | 37% | 35% | 0% | 11% | – | – | –
3 | O=C(Nc1ccccc1C(=O)Nc1ccc(Cl)cc1)c1cc(C(F)(F)F)cc(C(F)(F)F)c1 [Compound 16, N-(2-(4-chlorophenylcarbamoyl)phenyl)-3,5-bis(trifluoromethyl)benzamide] | – | – | – | – | – | – | – | – | – | 18 µM | 34% | – | 0% | – | 0% | – | – | – | –
4 | O=C(NCc1csc(-c2ccc(Cl)cc2)n1)c1cc(C(F)(F)F)cc(C(F)(F)F)c1 [Compound 18, N-((2-(4-chlorophenyl)thiazol-4-yl)methyl)-3,5-bis(trifluoromethyl)benzamide] | – | – | – | – | – | – | – | – | – | 4.1 µM | 50% | 45% | 39% | 38% | 0% | 0% | – | – | –
5 | O=C(NCCCOc1ccc(Cl)cc1)c1cc(C(F)(F)F)cc(C(F)(F)F)c1 [Compound 19, N-(3-(4-chlorophenoxy)propyl)-3,5-bis(trifluoromethyl)benzamide] | – | – | – | – | – | – | – | – | – | 8.9 µM | 55% | 86% | 28% | 65% | 0% | 38% | – | – | –
6 | O=C(CCNCc1cc(C(F)(F)F)cc(C(F)(F)F)c1)Nc1ccc(Cl)cc1 [Compound 22, 3-(3,5-bis(trifluoromethyl)benzylamino)-N-(4-chlorophenyl)propanamide] | – | – | – | – | – | – | – | – | – | 8.1 µM | 64% | 100% | 12% | 91% | 0% | 92% | – | – | –
7 | O=C(CC1CC(c2cc(C(F)(F)F)cc(C(F)(F)F)c2)=NO1)Nc1ccc(Cl)cc1 (stereo not drawn) [Compound 23, 2-(3-(3,5-bis(trifluoromethyl)phenyl)-4,5-dihydroisoxazol-5-yl)-N-(4-chlorophenyl)acetamide] | – | – | – | – | – | – | – | – | – | 4.6 µM | 77% | 87% | 58% | 73% | 0% | 66% | – | – | –
8 | O=C(CC1CCCCN1C(=O)c1cc(C(F)(F)F)cc(C(F)(F)F)c1)Nc1ccc(Cl)cc1 (stereo not drawn) [Compound 26, 2-(1-(3,5-bis(trifluoromethyl)benzoyl)piperidin-2-yl)-N-(4-chlorophenyl)acetamide] | – | – | – | – | – | – | – | – | – | 9.9 µM | 41% | 85% | 0% | 76% | 0% | 27% | – | – | –
9 | O=C(Nc1ccc(Cl)cc1)C1CCN(C(=O)c2cc(C(F)(F)F)cc(C(F)(F)F)c2)C1 (stereo not drawn) [Compound 27, 1-(3,5-bis(trifluoromethyl)benzoyl)-N-(4-chlorophenyl)pyrrolidine-3-carboxamide] | – | – | – | – | – | – | – | – | – | 15.6 µM | 30% | 100% | 14% | 92% | 0% | 86% | – | – | –
10 | FC(F)(F)c1cc(CNCCCNc2ccc(Cl)cc2)cc(C(F)(F)F)c1 [Compound 28, N^1-(3,5-bis(trifluoromethyl)benzyl)-N^3-(4-chlorophenyl)propane-1,3-diamine] | – | – | – | – | – | – | – | – | – | 9.1 µM | 65% | 100% | 6% | 90% | 0% | 89% | – | – | –
11 | O=C(NCCC(=O)N1CCc2cc(Cl)ccc21)c1cc(C(F)(F)F)cc(C(F)(F)F)c1 [Compound 29, N-(3-(5-chloroindolin-1-yl)-3-oxopropyl)-3,5-bis(trifluoromethyl)benzamide] | – | – | – | – | – | – | – | – | – | 13 µM | 15% | 40% | 0% | 1% | 0% | 0% | – | – | –
12 | O=C(CCNC(=O)c1cc(C(F)(F)F)cc(C(F)(F)F)c1)Nc1ccc(Cl)cc1 [Compound 30, N-(3-(4-chlorophenylamino)-3-oxopropyl)-3,5-bis(trifluoromethyl)benzamide] | 38% | 38 µM | – | – | – | – | – | – | – | 25 µM | 44% | 66% | 0% | 15% | 0% | 6% | 64% | 22% | 10%
13 | O=C(Nc1ccc(Cl)cc1)c1ccc(NC(=O)c2cc(C(F)(F)F)cc(C(F)(F)F)c2)cc1 [Compound 38] | – | – | – | – | – | – | – | – | – | > 100 µM | 0% | – | 0% | – | 0% | – | – | – | –
14 | O=C(CCc1cnnn1-c1cc(C(F)(F)F)cc(C(F)(F)F)c1)Nc1ccc(Cl)cc1 [Compound 59] | – | – | – | – | – | – | – | – | – | > 100 µM | -3% | 4.7% | -31.8% | -13.3% | -9.5% | -11.8% | – | – | –
